# Results: article PMC4339220 (2014)
# Tests used:
# [1] = test system: TGGAGA cognate hairpin (DNA, hairpin) CCTTGGAGAGTTTTCTCTCCAAGG; experiment: UV melting; details: 50 mM NaCl; 10 mM HEPES, 1 mM EDTA, pH 7.4; 3 µM hairpin, 3 µM compound
# [2] = test system: TGGAGA cognate hairpin (biotinylated) (DNA, hairpin) CCTTGGAGAGTTTTCTCTCCAAGG; experiment: SPR, global kinetic fit; details: 50 mM NaCl; 10 mM HEPES, 1 mM EDTA, pH 7.4, 0.05% P20, 25 °C
SMILES,ΔTm [1] [°C],KD [2] [nM]
CN(CCCN)CCCNC(=O)CCNC(=O)c1cc(NC(=O)c2cc(NC(=O)CCNC(=O)c3cc(NC(=O)CCCNC(=O)c4nc(NC(=O)c5cc(NC(=O)c6nc(NC(=O)c7nccn7C)cn6C)cn5C)cn4C)cn3C)cn2C)cn1C,8.0,2.6 ± 0.2
CN(CCCN)CCCNC(=O)CCNC(=O)c1cc(NC(=O)c2cc(NC(=O)CCNC(=O)c3cc(NC(=O)CCCNC(=O)c4nc(NC(=O)CCNC(=O)c5nc(NC(=O)c6nccn6C)cn5C)cn4C)cn3C)cn2C)cn1C,3.6,18.6 ± 0.8
CN(CCCN)CCCNC(=O)CCNC(=O)c1cc(NC(=O)CCNC(=O)c2cc(NC(=O)c3cc(NC(=O)CCCNC(=O)c4nc(NC(=O)CCNC(=O)c5nc(NC(=O)c6nccn6C)cn5C)cn4C)cn3C)cn2C)cn1C,,26.3 ± 2.2
CN(CCCN)CCCNC(=O)CCNC(=O)c1cc(NC(=O)c2cc(NC(=O)c3cc(NC(=O)c4cc(NC(=O)CCCNC(=O)c5nc(NC(=O)c6cc(NC(=O)c7nc(NC(=O)c8nccn8C)cn7C)cn6C)cn5C)cn4C)cn3C)cn2C)cn1C,,2.0 ± 0.2
CN(C)CCCNC(=O)CCNC(=O)c1cc(NC(=O)CCNC(=O)c2cc(NC(=O)c3cc(NC(=O)CCCNC(=O)c4nc(NC(=O)c5cc(NC(=O)c6nc(NC(=O)c7nccn7C)cn6C)cn5C)cn4C)cn3C)cn2C)cn1C,,36.4 ± 0.4
CN(C)CCCNC(=O)CCNC(=O)c1cc(NC(=O)c2cc(NC(=O)c3cc(NC(=O)c4cc(NC(=O)CCCNC(=O)c5nc(NC(=O)c6cc(NC(=O)c7nc(NC(=O)c8nccn8C)cn7C)cn6C)cn5C)cn4C)cn3C)cn2C)cn1C,7.8,2.5 ± 0.4
CN(C)CCCNC(=O)CCNC(=O)c1cc(NC(=O)c2cc(NC(=O)c3cc(NC(=O)c4cc(NC(=O)CCCNC(=O)c5nc(NC(=O)CCNC(=O)c6nc(NC(=O)c7nccn7C)cn6C)cn5C)cn4C)cn3C)cn2C)cn1C,,12.1 ± 0.4
